Assay results reported in patent US20240300934A1, “COMPOUNDS FOR MODULATING MYCOBACTERIUM TUBERCULOSIS RESPONSE” (priority 2021, published 2024).
In brackets after ≈: the same amount, converted by molar mass.

What was measured:
[1] = Kinetic aqueous solubility in pH 7.4 PBS; format: physicochemical; details: pH 7.4 phosphate buffered saline (PBS); read-out: Kinetic Aqueous Solubility S
Description: (§1) Assays examining mouse and human liver microsomal stability, kinetic aqueous solubility, mouse and human plasma protein binding and stability, and human cytochrome P450 inhibition characteristics of the compounds were run by BioDuro, Incorporated, using standard protocols as previously described (Wang et al, 2020). hERG inhibition assays were also performed by BioDuro, Incorporated.

Mtb in J774 cells = assay: Mtb growth in J774 macrophage-like cells (mKO fluorescence); format: cell-based, Mycobacterium tuberculosis; details: for Mtb growth in J774 cells (in words): 10 μM, 6 days post-infection; for Inhibition of Mtb growth in J774 cells phenotype: compared to C6
Description: For the tertiary screen of selected hit compounds in J774 murine macrophage-like cells, 30,000 J774 cells/well were seeded in bar-coded 384-well black, clear bottom plates in a 30 μl volume in J774 infection media (DMEM+10% FBS+1 mM sodium pyruvate+2 mM L-glutamine) using a ThermoFisher Multidrop Combi reagent dispenser, one day prior to assay start. On the day of the assay, log-phase Mtb constitutively expressing mKO were pelleted and resuspended in 1 ml basal uptake buffer (0.5% bovine serum albumin+25 mM dextrose+0.5 mM MgCl2+1 mM CaCl2+0.1% gelatin in phosphate buffered saline (PBS), passed 6× though a tuberculin syringe with a 25 G×5/8″ needle, then resuspended in J774 infection media to a final OD600=0.2. 10 μl of this bacterial suspension was added to each well of the 384-well plates containing the J774 cells, followed by addition of 10 μl of the appropriate compounds (pre-aliquoted in v-bottom plates in a 1:1 mix of PBS:J774 infection media). Addition of Mtb and compounds were conducted using a Janus Ministation. For each test plate, two columns of controls (16 wells each) were included, with one column consisting of treatment with DMSO as a carrier control (negative control), and the other column consisting of treatment with 5 μM rifampicin (positive control). This tertiary assay was done as a dose-response assay in duplicate runs, with compounds tested beginning at a final concentration of 20 μM and two-fold dilutions down to 0.039 μM. Plates were kept in humidified ziplock bags in a 37° C., 5% CO2 incubator. 6 days post-infection, mKO fluorescence signal was read using a PerkinElmer EnVision multimode plate reader (bottom read filter, excitation 530/8 nm, Bodipy TMR D555 single mirror, emission 579/25 nm). mKO fluorescence in DMSO-treated control samples were defined as 100% growth, and fluorescence observed in treatment conditions calculated as a percentage from that set value.
For J774 infection in 96-well plates, 180,000 J774 cells were seeded per well in 180 μl of J774 infection media one day prior to infection. On the day of the assay, log-phase Mtb constitutively expressing mKO were pelleted and resuspended in 1 ml basal uptake buffer, passed 6× though a tuberculin syringe with a 25 G×5/8″ needle, then resuspended in J774 infection media to a final OD600=0.2. Media was removed from 96-well plate containing the J774 cells, with 140 μl of fresh J774 infection media added back to each well. 40 μl of the Mtb suspension at OD600=0.2 was added to each well, followed by addition of appropriate concentration of compound or DMSO in a 20 μl final volume in J774 infection media (compound final concentration 10 μM, rifampicin final concentration 5 μM, DMSO final concentration 0.1%/well). Bacterial mKO fluorescence was read immediately after infection using a Biotek Synergy Neo2 microplate reader (bottom read monochromator, excitation 543/10 nm, emission 565/10 nm), and again 6 days post-infection. Plates were kept in humidified ziplock bags in a 37° C., 5% CO2 incubator. mKO fluorescence in DMSO-treated control samples were defined as 100% growth, and fluorescence observed in treatment conditions calculated as a percentage from that set value.

[2] = system: rv2390c′::GFP reporter Mtb strain; format: cell-based, Mycobacterium tuberculosis; details: for rv2390c′::GFP reporter signal upon Mtb exposure to high [Cl−] (in words): 10 μM, 250 mM NaCl; for rv2390c′::GFP Cl− response phenotype: compared to C6
[3] = Mouse liver microsomal stability; format: in vitro ADME; details: mouse liver microsomes
Description: as §1

[4] = Mouse pharmacokinetics, single oral dose; format: in vivo, CD-1 mice; details: single 5 mg/kg oral (po) dose; plasma; CD-1 mice (n=2)
Description: Blood samples were collected in K2EDTA coated tubes pre-dose, 0.5, 1, 3 and 5 hrs post-dose, placed on ice, and centrifuged to recover plasma. The recovered plasma was kept at −80° C. as needed prior to analysis, which was performed as previously described (Wang et al, 2020). In brief, a Sciex Applied Biosystems Qtrap 4000 triple-quadrupole mass spectrometer coupled to an Agilent 1260 HPLC system was used for HPLC coupled to tandem mass spectrometry (LC-MS/MS) quantitative analysis of the samples, with chromatography attained using an Agilent Zorbax SB-C8 column (2.1×30 mm; particle size, 3.5 μm) and a reverse phase gradient elution. The aqueous mobile phase consisted of Milli-Q deionized water with 0.1% formic acid (A), while the organic mobile phase was 0.1% formic acid in acetonitrile (B). The gradient set-up was as follows: 5-90% B over 2 mins, 1 min at 90% B, then an immediate drop to 5% B and an additional 1 min at 5% B. Quantification of molecules was carried out via multiple-reaction monitoring of parent/daughter transitions in electrospray positive-ionization mode, and sample analyses accepted if quality control and standard samples had concentrations within 20% of the nominal concentration. Preparation of compounds for generation of standard curves and quality control spiking solutions were performed as previously described (Wang et al, 2020). Data were processed using Analyst software (Version 1.6.2; Applied Biosystems Sciex).

[5] = system: Mtb in bone marrow-derived macrophages (BMDMs); assay: Mtb growth in primary murine bone marrow-derived macrophages (CFU); format: cell-based, Mycobacterium tuberculosis; details: 10 μM; added 2 hrs post-infection; eight-day time-course
Description: C57BL/6J wild type mice (Jackson Laboratories) were used for extraction of bone marrow-derived macrophages. Cells were harvested and expanded in DMEM containing 10% FBS, 15% L-cell conditioned media, 2 mM L-glutamine, 1 mM sodium pyruvate, and penicillin/streptomycin as needed in a 37° C. incubator in a 5% CO2 atmosphere. […] Macrophages were lysed with water containing 0.01% sodium dodecyl sulfate and a dilution series of the samples plated on 7H10 agar for CFU determination.

Mtb-infected J774 cells = details: 10 μM for 24 h; 5 days post-infection
Mtb [6] = assay: Mtb growth assay in cholesterol media (OD600); format: cell-based, Mycobacterium tuberculosis; details: for Mtb growth in cholesterol media (in words): 10 μM, OD600; for Growth inhibition in cholesterol media phenotype: compared to C6
J774 cells = assay: Intracellular drug accumulation assay in J774 cells; details: 24 h exposure; uninfected J774 cells
Mtb [7] = assay: Intrabacterial drug accumulation assay; details: 24 h exposure; 7H9 pH 7 ± 250 mM NaCl
Mtb [8] = details: subset of mice failing to respond; cited from earlier work
Mtb [9] = details: mice that do not form caseous necrotic lesions; cited from earlier work

Row | Compound | solubility kinetic [1] | Mtb growth in J774 cells (in words) (Mtb in J774 cells) | inhibition at 10 µM (Mtb in J774 cells; Mycobacterium tuberculosis, J774CELLS, J774, 144 h, read-out: % inhibition compared to Rif in J774 at 10 μM) | inhibition at 20 µM (Mtb in J774 cells; Mycobacterium tuberculosis, J774CELLS, J774, 144 h, read-out: % inhibition compared to Rif in J774 at 20 μM) | rv2390c′::GFP reporter signal upon Mtb exposure to high [Cl−] (in words) [2] | rv2390c′::GFP response phenotype ([2]; screen hits, high chloride (250 mM NaCl, pH 6.4)) | MLM t1/2 [3] | AUC0-5 h [4] | Mtb bacterial load / growth in primary murine BMDM (in words) [5] | accumulation in Mtb-infected J774 cells (Mtb-infected J774 cells) | Mtb growth in cholesterol media (in words) (Mtb [6]) | Growth inhibition in cholesterol media phenotype (Mtb [6]) | Inhibition of Mtb growth in J774 cells phenotype (Mtb in J774 cells) | intracellular accumulation in J774 cells (J774 cells) | rv2390c′::GFP Cl− response phenotype [2] | intrabacterial accumulation in Mtb (Mtb [7]) | response in C3HeB/FeJ mice (Mtb [8]) | efficacy in BALB/c mice (Mtb [9])
1 | O=C(c1cnc2ccccn12)N1CCCC(CCc2cccc(C(F)(F)F)c2)C1 (stereo not shown) [Compound C5, Imidazo[1,2-a]pyridin-3-yl(3-(3-(trifluoromethyl)phenethyl)piperidin-1-yl)methanone] | 6.67 µM (≈ 2.68 µg/mL) | Mtb growth inhibition | 50.9 ± 3.2% | 55% | increased rv2390c′::GFP reporter signal | Increases induction in high | 4.98 min | 42 ng·h/mL | significant decrease in bacterial load | – | – | – | – | – | – | – | – | –
2 | COc1ncc(CN2CCN(c3nc4ccccc4o3)CC2)cn1 [JSF-4271, 2-(4-((2-methoxypyrimidin-5-yl)methyl)piperazin-1-yl)benzo[d]oxazole] | – | loss of the ability to inhibit Mtb growth | – | – | lost the ability | – | – | – | loss of the ability to inhibit Mtb growth | minimal accumulation | no longer inhibited Mtb growth in cholesterol media | N | N | minimal accumulation | N | decreased accumulation | – | –
3 | c1ccc2oc(N3CCN(Cc4cncnc4)CC3)nc2c1 [JSF-4297, 2-(4-(pyrimidin-5-ylmethyl)piperazin-1-yl)benzo[d]oxazole] | – | loss of the ability to inhibit Mtb growth | – | – | lost the ability | – | – | – | loss of the ability to inhibit Mtb growth | – | no longer inhibited Mtb growth in cholesterol media | N | N | no detectable accumulation | N | – | – | –
4 | CCSc1ccc(CN2CCN(c3nc4ccccc4o3)CC2)cc1 [JSF-4300, 2-(4-(4-(ethylthio)benzyl)piperazin-1-yl)benzo[d]oxazole] | – | continuing to demonstrate the phenotypes seen with the parental C6 compound | – | – | continuing to demonstrate the phenotypes seen with the parental C6 compound | – | – | – | – | robust accumulation | continuing to demonstrate the phenotypes seen with the parental C6 compound | Y | Y | robust accumulation | Y | robust accumulation | – | –
5 | COc1nc2ccc(Br)cc2cc1[C@@H](c1ccccc1)[C@@](O)(CCN(C)C)c1cccc2ccccc12 [bedaquiline] | – | – | – | – | – | – | – | – | – | – | – | – | – | – | – | – | heterogeneous response | uniform efficacy across animals
6 | NC(=O)c1cnccn1 [pyrazinamide] | – | – | – | – | – | – | – | – | – | – | – | – | – | – | – | – | heterogeneous response | uniform efficacy across animals
